Consider four compounds from patent US6518424B1, “Substituted pyrimidine compositions and methods of use” (Elan Pharmaceuticals, Inc., priority 1998, dated 2003).

The structures appear in SMILES notation. pIC50: −log10 of the molar value. A value given as a limit tells only on which side of the number the result lay.

One data set concerns the target T1, cPLA2 (Homo sapiens, UniProt P47712).
T1 construct: using cPLA2 enzyme from the cytosolic extraction of U937 cells; endogenous in cells; host or cells: human U937 cells, cytosolic extract (N2 cavitation, 100,000 g supernatant)
T1 sequence (P47712 1-749): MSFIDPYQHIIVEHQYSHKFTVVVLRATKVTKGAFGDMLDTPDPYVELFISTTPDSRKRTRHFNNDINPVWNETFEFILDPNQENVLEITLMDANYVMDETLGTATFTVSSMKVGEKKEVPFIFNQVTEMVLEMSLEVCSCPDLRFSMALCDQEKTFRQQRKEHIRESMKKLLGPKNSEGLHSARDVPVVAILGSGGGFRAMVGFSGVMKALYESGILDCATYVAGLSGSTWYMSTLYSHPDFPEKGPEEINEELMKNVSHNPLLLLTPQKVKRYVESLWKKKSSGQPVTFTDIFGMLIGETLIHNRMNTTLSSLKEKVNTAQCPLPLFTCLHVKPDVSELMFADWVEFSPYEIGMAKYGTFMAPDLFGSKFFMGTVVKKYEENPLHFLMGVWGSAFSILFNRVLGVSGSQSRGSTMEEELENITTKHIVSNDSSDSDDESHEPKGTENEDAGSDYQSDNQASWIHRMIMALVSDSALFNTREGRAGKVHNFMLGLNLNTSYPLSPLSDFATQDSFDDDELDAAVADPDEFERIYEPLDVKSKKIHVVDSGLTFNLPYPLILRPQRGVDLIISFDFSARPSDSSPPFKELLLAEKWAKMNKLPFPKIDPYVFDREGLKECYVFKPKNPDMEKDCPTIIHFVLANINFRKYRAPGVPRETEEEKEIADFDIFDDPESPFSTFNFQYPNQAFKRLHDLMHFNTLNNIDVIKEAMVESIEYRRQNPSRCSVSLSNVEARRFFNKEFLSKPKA
Description: cPLA2 enzyme assay using U937 cytosolic extract as enzyme source (release of [14C]-AA from phosphatidylcholine). In kind it is biochemical. As to conditions: asterisk on compound number in Table I. How it is done:
The PLA2 inhibitory properties of the compounds of the present invention were evaluated using the following assays. Inhibition of release of [^14C]-AA from phosphatidylcholine was measured according to standard methods. Human U937 cells were cultured in RPMI 1640 medium supplemented with 10% fetal bovine serum, penicillin, L-glutamine, and HEPES buffer. Cells were harvested and washed 3 times with extraction buffer (140 mM NaCl—5 mM KCl—2 mM EDTA—25 mM Tris pH 7.4) and resuspended at 1×10^8 cells/mL containing 100 μM leupeptin—50 μM pepstatin—1 mM PMSF. Cells were placed in a N2 cavitation bomb and put under pressure at 600 psi or maximum pressure for 20 minutes at 4° C. Cells were then released. The suspension was collected and centrifuged at 100,000 g for 60 minutes at 4° C. The resulting supernatant was collected and filtered through a 0.22 μm filter. Extract was then diluted to 50% glycerol and stored at −20° C.
For the preparation of substrate, 20 nmol of phosphatidylcholine-α-1-palmitoyl-2-arachidonyl-1-[^14C] and 10 nmol 1,2-dioleyl-glycerol were mixed together and dried under a N2 stream. A solution of 1 mL of 150 mM NaCl—50 mM HEPES pH 7.5 was added to the mixture. To reconstitute liposomes, the mixture was sonicated using a Branson 450 sonifier for 2 minutes at 50% duty cycle output level 3 on ice. After sonification, 40 μL of a 100 mg/mL BSA solution was added per mL.
The compounds were first dissolved in DMSO at 2 mM and serially diluted in DMSO by a factor of five for a total of 5 concentrations. These dilutions were further dissolved 60 fold in reaction buffer (150 mM NaCl—50 mM HEPES pH 7.5—1 mM CaCl2—1 mM 2-ME) containing approximately 5% of the U937 cytosolic extract to make up the preincubation mixture which was then incubated for 20 minutes at 37° C. Vehicle control using only DMSO with no compound was also made. To 30 μL of this Extract/compound mixture was added 10 μL of substrate. The 40 μL reaction mixture was incubated for 15 minutes at 37° C., and the reaction was stopped by adding 400 μL Dole's reagent [2-propanol/heptane/0.5 M H2SO4 (40:10:1) 10 μg/mL stearic acid]. This was followed by the addition of 240 μL heptane and 200 μL water. 280 μL of the top heptane layer was transferred to a tube containing […] silica gel with 200 μL heptane and mixed vigorously. Silica gel was then centrifuged at 1000 g for 1 minute. 400 μL of liquid was transferred to scintillation vial along with 4 mL of Beckman Ready Safe scintillation cocktail and mixed. Radioactivity was determined in a Beckman scintillation counter.
The compounds of the present invention were assayed for cPLA2 activity using cPLA2 enzyme from the cytosolic extraction of U937 cells (all procedures carried out on ice). […]

Usually pIC50 stands for the IC50 on a negative log10 scale, so that one unit is a factor of ten. Lower therefore signals a large IC50. As usually defined, the melting point is the temperature of the solid-liquid transition. Compound `CCCc1ccc(C(c2ccccc2)c2cc(O)nc(-c3ccccc3)n2)cc1` (centres unmarked) [Compound 18, 6-((4-n-Propyl)phenyl,phenyl)methyl-2-phenyl-pyrimidine-4-ol] had a melting point of 149 to 154 °C. On cPLA2, this compound had a pIC50 of over 7.00.

Take `CCCc1ccc(C(c2ccccc2)c2cc(O)nc(-c3ccccc3)n2)cc1` (centres unmarked) [Compound 19, 6-((4-Propyl)phenyl,phenyl)methyl-2-phenyl-pyrimidine-4-ol]: on cPLA2, the pIC50 was over 7.00.

In turn, `CC(C)Oc1ccc(C(c2ccccc2)c2cc(O)nc(-c3ccccc3)n2)cc1` (centres unmarked) [Compound 21, 6-((4-Isopropoxy)phenyl,phenyl)methyl-2-phenyl-pyrimidine-4-ol] showed a pIC50 against cPLA2 of over 7.00.

Compound `CC(C)Oc1ccc(C(c2ccccc2)c2cc(O)nc(-c3ccccc3)n2)cc1` (centres unmarked) [Compound 22, 6-((4-Isopropoxy)phenyl,phenyl)methyl-2-phenyl-pyrimidine-4-ol] had a pIC50 against cPLA2 of over 7.00.
